Reference: patent publication US12077503B2, “Substituted cyclic amides and their use as herbicides” (FMC CORPORATION, priority 2015, dated 2024)

What was measured:
Assay type in all cases: in vivo
[1] = test system: ivy-leaved morning glory (Ipomoea hederacea); test: Test G Pre-Emergence Protocol; conditions: Ipomoea, pre-emergence, 312 h, evaluated after 13 days; for pest or weed control at 15.625 g/ha: 15.625 g ai/ha; for pest or weed control at 15.625 g/ha / pest or weed control at 250 g/ha: read-out: Morningglory, Ivy-leaved damage rating (100=total damage to plant; 0=no damage to plant); for pest or weed control at 62.5 g/ha: 62.5 g ai/ha, 100=total damage to plant, 0=no damage to plant, read-out: Morningglory, Ivy-leaved damage rating; for pest or weed control at 250 g/ha: 250 g ai/ha
Method in brief: (§1)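 Pots of seeds in standard soil were grown for one day in a glasshouse (24/16 °C day/night, 14 h light, 65% humidity), then sprayed with compound in acetone/water 50:50 with 0.5% Tween 20 at 15.625, 62.5 or 250 g/ha. Damage was scored after 13 days on a 0 (none) to 100 (total) scale.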

[2] = test system: redroot pigweed (Amaranthus retroflexus); test: Test G Pre-Emergence Protocol; conditions: Amaranthus retroflexus, pre-emergence, 312 h, evaluated after 13 days; for pest or weed control at 15.625 g/ha: 15.625 g ai/ha; for pest or weed control at 15.625 g/ha / pest or weed control at 250 g/ha: read-out: Pigweed, Redroot damage rating (100=total damage to plant; 0=no damage to plant); for pest or weed control at 62.5 g/ha: 62.5 g ai/ha, 100=total damage to plant, 0=no damage to plant, read-out: Pigweed, Redroot damage rating; for pest or weed control at 250 g/ha: 250 g ai/ha
Method in brief: as §1

[3] = test system: barnyardgrass (Echinochloa crus-galli); test: Test G Pre-Emergence Protocol; conditions: Echinochloa crus-galli, pre-emergence, 312 h, evaluated after 13 days; for pest or weed control at 15.625 g/ha: 15.625 g ai/ha; for pest or weed control at 15.625 g/ha / pest or weed control at 250 g/ha: read-out: Barnyardgrass damage rating (100=total damage to plant; 0=no damage to plant); for pest or weed control at 62.5 g/ha: 62.5 g ai/ha, 100=total damage to plant, 0=no damage to plant, read-out: Barnyardgrass damage rating; for pest or weed control at 250 g/ha: 250 g ai/ha
Method in brief: as §1

[4] = test system: velvetleaf (Abutilon theophrasti); test: Test G Pre-Emergence Protocol; conditions: Abutilon theophrasti, pre-emergence, 312 h, evaluated after 13 days; for pest or weed control at 15.625 g/ha: 15.625 g ai/ha; for pest or weed control at 15.625 g/ha / pest or weed control at 250 g/ha: read-out: Velvetleaf damage rating (100=total damage to plant; 0=no damage to plant); for pest or weed control at 62.5 g/ha: 62.5 g ai/ha, 100=total damage to plant, 0=no damage to plant, read-out: Velvetleaf damage rating; for pest or weed control at 250 g/ha: 250 g ai/ha
Method in brief: as §1

[5] = test system: corn (Zea mays); test: Test G Pre-Emergence Protocol; conditions: Zea mays, pre-emergence, 312 h, evaluated after 13 days; for plant injury at 15.625 g/ha: 15.625 g ai/ha; for plant injury at 15.625 g/ha / plant injury at 250 g/ha: read-out: Corn damage rating (100=total damage to plant; 0=no damage to plant); for plant injury at 62.5 g/ha: 62.5 g ai/ha, 100=total damage to plant, 0=no damage to plant, read-out: Corn damage rating; for plant injury at 250 g/ha: 250 g ai/ha
Method in brief: as §1

[6] = test system: giant foxtail (Setaria faberi); test: Test G Pre-Emergence Protocol; conditions: Setaria faberi, pre-emergence, 312 h, evaluated after 13 days; for pest or weed control at 15.625 g/ha: 15.625 g ai/ha; for pest or weed control at 15.625 g/ha / pest or weed control at 250 g/ha: read-out: Foxtail, Giant damage rating (100=total damage to plant; 0=no damage to plant); for pest or weed control at 62.5 g/ha: 62.5 g ai/ha, 100=total damage to plant, 0=no damage to plant, read-out: Foxtail, Giant damage rating; for pest or weed control at 250 g/ha: 250 g ai/ha
Method in brief: as §1

[7] = test system: ivy-leaved morning glory (Ipomoea hederacea); test: Test G Post-Emergence Protocol; conditions: Ipomoea, post-emergence, 312 h, read-out: Morningglory, Ivy-leaved damage rating; for pest or weed control at 15.625 g/ha: 15.625 g ai/ha, evaluated after 13 days (100=total damage to plant; 0=no damage to plant); for pest or weed control at 62.5 g/ha: 62.5 g ai/ha; for pest or weed control at 62.5 g/ha / pest or weed control at 250 g/ha: evaluated after 13 days, 100=total damage to plant, 0=no damage to plant; for pest or weed control at 250 g/ha: 250 g ai/ha
Method in brief: (§2)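 Eight days post-sowing, plants received a spray of test compound (acetone/water 50:50, 0.5% Tween 20) at 15.625, 62.5 or 250 g/ha. Glasshouse regime thereafter: 24/16 °C, 14 h light, 65% humidity. Assessment after 13 days on a 0–100 damage scale.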

[8] = test system: redroot pigweed (Amaranthus retroflexus); test: Test G Post-Emergence Protocol; conditions: Amaranthus retroflexus, post-emergence, 312 h, read-out: Pigweed, Redroot damage rating; for pest or weed control at 15.625 g/ha: 15.625 g ai/ha, evaluated after 13 days (100=total damage to plant; 0=no damage to plant); for pest or weed control at 62.5 g/ha: 62.5 g ai/ha; for pest or weed control at 62.5 g/ha / pest or weed control at 250 g/ha: evaluated after 13 days, 100=total damage to plant, 0=no damage to plant; for pest or weed control at 250 g/ha: 250 g ai/ha
Method in brief: as §2

[9] = test system: barnyardgrass (Echinochloa crus-galli); test: Test G Post-Emergence Protocol; conditions: Echinochloa crus-galli, post-emergence, 312 h, read-out: Barnyardgrass damage rating; for pest or weed control at 15.625 g/ha: 15.625 g ai/ha, evaluated after 13 days (100=total damage to plant; 0=no damage to plant); for pest or weed control at 62.5 g/ha: 62.5 g ai/ha; for pest or weed control at 62.5 g/ha / pest or weed control at 250 g/ha: evaluated after 13 days, 100=total damage to plant, 0=no damage to plant; for pest or weed control at 250 g/ha: 250 g ai/ha
Method in brief: as §2

[10] = test system: velvetleaf (Abutilon theophrasti); test: Test G Post-Emergence Protocol; conditions: Abutilon theophrasti, post-emergence, 312 h, read-out: Velvetleaf damage rating; for pest or weed control at 15.625 g/ha: 15.625 g ai/ha, evaluated after 13 days (100=total damage to plant; 0=no damage to plant); for pest or weed control at 62.5 g/ha: 62.5 g ai/ha; for pest or weed control at 62.5 g/ha / pest or weed control at 250 g/ha: evaluated after 13 days, 100=total damage to plant, 0=no damage to plant; for pest or weed control at 250 g/ha: 250 g ai/ha
Method in brief: as §2

[11] = test system: corn (Zea mays); test: Test G Post-Emergence Protocol; conditions: Zea mays, post-emergence, 312 h, read-out: Corn damage rating; for plant injury at 15.625 g/ha: 15.625 g ai/ha, evaluated after 13 days (100=total damage to plant; 0=no damage to plant); for plant injury at 62.5 g/ha: 62.5 g ai/ha; for plant injury at 62.5 g/ha / plant injury at 250 g/ha: evaluated after 13 days, 100=total damage to plant, 0=no damage to plant; for plant injury at 250 g/ha: 250 g ai/ha
Method in brief: as §2

[12] = test system: giant foxtail (Setaria faberi); test: Test G Post-Emergence Protocol; conditions: Setaria faberi, post-emergence, 312 h, read-out: Foxtail, Giant damage rating; for pest or weed control at 15.625 g/ha: 15.625 g ai/ha, evaluated after 13 days (100=total damage to plant; 0=no damage to plant); for pest or weed control at 62.5 g/ha: 62.5 g ai/ha; for pest or weed control at 62.5 g/ha / pest or weed control at 250 g/ha: evaluated after 13 days, 100=total damage to plant, 0=no damage to plant; for pest or weed control at 250 g/ha: 250 g ai/ha
Method in brief: as §2

Structure (SMILES)	pest or weed control at 15.625 g/ha [1]	pest or weed control at 62.5 g/ha [1]	pest or weed control at 250 g/ha [1]	pest or weed control at 15.625 g/ha [2]	pest or weed control at 62.5 g/ha [2]	pest or weed control at 250 g/ha [2]	pest or weed control at 15.625 g/ha [3]	pest or weed control at 62.5 g/ha [3]	pest or weed control at 250 g/ha [3]	pest or weed control at 15.625 g/ha [4]	pest or weed control at 62.5 g/ha [4]	pest or weed control at 250 g/ha [4]	plant injury at 15.625 g/ha [5]	plant injury at 62.5 g/ha [5]	plant injury at 250 g/ha [5]	pest or weed control at 15.625 g/ha [6]	pest or weed control at 62.5 g/ha [6]	pest or weed control at 250 g/ha [6]	pest or weed control at 15.625 g/ha [7]	pest or weed control at 62.5 g/ha [7]	other results
COc1cc(C)cc([C@@H]2CN(C)C(=O)[C@H]2C(=O)Nc2cccc(F)c2C)c1 (racemic) [Compound 1791]	10%	20%	80%	0%	0%	10%	70%	80%	90%	0%	10%	40%	20%	70%	80%	80%	90%	90%	20%	70%	pest or weed control at 250 g/ha [7]: 70%; pest or weed control at 15.625 g/ha [8]: 0%; pest or weed control at 62.5 g/ha [8]: 0%; pest or weed control at 250 g/ha [8]: 0%; pest or weed control at 15.625 g/ha [9]: 70%; pest or weed control at 62.5 g/ha [9]: 80%; pest or weed control at 250 g/ha [9]: 80%; pest or weed control at 15.625 g/ha [10]: 10%; pest or weed control at 62.5 g/ha [10]: 30%; pest or weed control at 250 g/ha [10]: 20%; plant injury at 15.625 g/ha [11]: 30%; plant injury at 62.5 g/ha [11]: 70%; plant injury at 250 g/ha [11]: 80%; pest or weed control at 15.625 g/ha [12]: 80%; pest or weed control at 62.5 g/ha [12]: 80%; pest or weed control at 250 g/ha [12]: 80%
COc1ccc([C@@H]2CN(C)C(=O)[C@H]2C(=O)Nc2cccc(F)c2C)cc1Cl (racemic) [Compound 1793]	0%	0%	10%	0%	0%	0%	20%	70%	90%	0%	0%	30%	0%	20%	40%	30%	90%	90%	0%	10%	pest or weed control at 250 g/ha [7]: 70%; pest or weed control at 15.625 g/ha [8]: 0%; pest or weed control at 62.5 g/ha [8]: 0%; pest or weed control at 250 g/ha [8]: 0%; pest or weed control at 15.625 g/ha [9]: 30%; pest or weed control at 62.5 g/ha [9]: 70%; pest or weed control at 250 g/ha [9]: 80%; pest or weed control at 15.625 g/ha [10]: 0%; pest or weed control at 62.5 g/ha [10]: 10%; pest or weed control at 250 g/ha [10]: 30%; plant injury at 15.625 g/ha [11]: 10%; plant injury at 62.5 g/ha [11]: 30%; plant injury at 250 g/ha [11]: 50%; pest or weed control at 15.625 g/ha [12]: 70%; pest or weed control at 62.5 g/ha [12]: 80%; pest or weed control at 250 g/ha [12]: 80%
